The values that follow come from ChEMBL document CHEMBL5505975, “Design, synthesis and biological evaluation of CDC20 inhibitors for treatment of triple-negative breast cancer” (Eur J Med Chem, 2024).

Activity calls are given as the source filed them. No cut-off for these calls is given here.

In data set [1] the test system is MDA-MB-231. In words: Cell cycle arrest in human MDA-MB-231 cells assessed as G1 phase cells at 5 uM incubated for 48 hrs by PI staining based flow cytometric analysis (reference value: 76.7%). In kind it is functional.
Data set [2] has as its system MDA-MB-231. Put plainly: Cell cycle arrest in human MDA-MB-231 cells assessed as G1 phase cells at 10 uM incubated for 48 hrs by PI staining based flow cytometric analysis (reference value: 76.7%). In kind it is functional. For orientation: A flow cytometer gives signals particle by particle.
Data set [3] deals with MDA-MB-231. In words: Induction of apoptosis in human MDA-MB-231 cells assessed as early apoptotic cells at 5 uM incubated for 48 hrs by Annexin V-FITC/PI staining based flow cytometric analysis (reference value: 2.25 %). In kind it is functional.
Data set [4] has as its system MDA-MB-231. Put plainly: Induction of apoptosis in human MDA-MB-231 cells assessed as late apoptotic cells at 5 uM incubated for 48 hrs by Annexin V-FITC/PI staining based flow cytometric analysis (reference value: 1.06%). In kind it is functional.
Data set [5] relates to MDA-MB-231. In words: Induction of apoptosis in human MDA-MB-231 cells assessed as necrotic cells at 5 uM incubated for 48 hrs by Annexin V-FITC/PI staining based flow cytometric analysis (reference value: 1.63%). In kind it is functional.
For data set [6], the system named is MDA-MB-231. In words: Induction of apoptosis in human MDA-MB-231 cells assessed as viable cells at 10 uM incubated for 48 hrs by Annexin V-FITC/PI staining based flow cytometric analysis (reference value: 95.10%). In kind it is functional. The note with it: read-out: Activity.
In data set [7] the test system is MDA-MB-231. Put plainly: Induction of apoptosis in human MDA-MB-231 cells assessed as necrotic cells at 10 uM incubated for 48 hrs by Annexin V-FITC/PI staining based flow cytometric analysis (reference value: 1.63%). In kind it is functional.
The subject of data set [8] is 4T1. In words: Antitumor activity against mouse 4T1 cells implanted in female BALB/C mouse assessed as inhibition of tumor growth at 20 to 50 mg/kg, iv administered every two days for 21 days. The settings on record: dose 20-50 mg/kg, time 21.0 day. In kind it is functional, organism-based.
The subject of data set [9] is 4T1. In words: Antitumor activity against mouse 4T1 cells implanted in female BALB/C mouse assessed as inhibition of tumor weight at 20 mg/kg, iv administered every two days for 21 days relative to control. The settings on record: time 21.0 day. In kind it is functional, organism-based.
Data set [10] is described as follows: Toxicity in female BALB/C mouse implanted with mouse 4T1 cells assessed as effect on body weight at 20 to 50 mg/kg, iv administered every two days for 21 days. In kind it is organism-based. The settings on record: in vivo, 504 h, dose 20-50 mg/kg, time 21 day.
Data set [11] is described as follows: Toxicity in female BALB/C mouse implanted with mouse 4T1 cells assessed as heart damage at 20 to 50 mg/kg, iv administered every two days for 21 days by H and E staining based analysis. In kind it is organism-based. The settings on record: in vivo, 504 h, dose 20-50 mg/kg, time 21 day.
The nature of data set [12]: Toxicity in female BALB/C mouse implanted with mouse 4T1 cells assessed as liver damage at 20 to 50 mg/kg, iv administered every two days for 21 days by H and E staining based analysis. The note with it: in vivo, 504 h, dose 20-50 mg/kg, time 21 day. In kind it is organism-based.
Data set [13] can be described thus: Toxicity in female BALB/C mouse implanted with mouse 4T1 cells assessed as liver damage at 20 to 50 mg/kg, po administered every two days for 21 days by H and E staining based analysis. In kind it is organism-based. The settings on record: in vivo, 504 h, dose 20-50 mg/kg, time 21 day.
Data set [14] in a line: Toxicity in female BALB/C mouse implanted with mouse 4T1 cells assessed as lung damage at 20 to 50 mg/kg, po administered every two days for 21 days by H and E staining based analysis. In kind it is organism-based. The note with it: in vivo, 504 h, dose 20-50 mg/kg, time 21 day.
Data set [15] in a line: Toxicity in female BALB/C mouse implanted with mouse 4T1 cells assessed as kidney damage at 20 to 50 mg/kg, po administered every two days for 21 days by H and E staining based analysis. In kind it is organism-based. The settings on record: in vivo, 504 h, dose 20-50 mg/kg, time 21 day.
Data set [16] is described as follows: Toxicity in female BALB/C mouse implanted with mouse 4T1 cells assessed as change in serum BUN level at 20 to 50 mg/kg, po administered every two days for 21 days. In kind it is organism-based. The note with it: in vivo, 504 h, dose 20-50 mg/kg, time 21 day.
A short description of data set [17]: Toxicity in female BALB/C mouse implanted with mouse 4T1 cells assessed as change in serum AST level at 20 to 50 mg/kg, iv administered every two days for 21 days. In kind it is organism-based. The note with it: in vivo, 504 h, dose 20-50 mg/kg, time 21 day.
The nature of data set [18]: Toxicity in female BALB/C mouse implanted with mouse 4T1 cells assessed as change in serum CREA level at 20 to 50 mg/kg, iv administered every two days for 21 days. In kind it is organism-based. The settings on record: in vivo, 504 h, dose 20-50 mg/kg, time 21 day.
Data set [19] in a line: Toxicity in female BALB/C mouse implanted with mouse 4T1 cells assessed as effect on monocytes at 20 to 50 mg/kg, iv administered every two days for 21 days by routine blood analysis. In kind it is organism-based. The settings on record: in vivo, 504 h, dose 20-50 mg/kg, time 21 day.

Turning to `CCC(=O)NC(n1cnc2c(Nc3cc(OC)c(OC)c(OC)c3)nc(N)nc21)C(Cl)(Cl)Cl` (centres undefined), the Activity in the data set on MDA-MB-231 [1] is 62.8%; in the data set with MDA-MB-231 [2], 77.5%; in the data set with MDA-MB-231 [3], 4.37%; with MDA-MB-231 [4], 1.87%; in the data set with MDA-MB-231 [5], 0.96%; with MDA-MB-231 [7] it was 1.14%. Further, the Activity result in data set [10], in data set [11], in [12], in [13], in [14] and in data set [15] was “Non-Toxic” in each case. In addition, the Activity entry in data set [16], in [17], in data set [18] and in data set [19] was “Non-Toxic” each time. Besides, the viability at 10 µM with MDA-MB-231 [6] was found to be 92.3%. Also, the result in the data set with 4T1 [8] was Active. Moreover, the outcome in the data set on 4T1 [9] was inactive.
